Reference: US20260374815A1, “PIGMENT EPITHELIUM-DERIVED FACTOR PEPTIDES AND USE FOR TREATING RETINAL DEGENERATION” (priority 2022, published 2026)
Where no end group is shown, it is not given here.

Legend:
[1] = test system: photoreceptor function, rd10/Serpinf1 null mice; assay: Electroretinography (ERG), rd10/Serpinf1 null mice; format: in vivo, mouse; conditions: P21, daily eyedrops P15-P20
Procedure: (§1) At end point, eyes were enucleated and cross section of retinas from the treated animals were obtained. […] Third, electroretinography was performed in untreated and eyes treated with the 17mer[H105A] peptide eyedrops. Following an intense brief flash of light from darkness, the negative-going a-wave is generated by rod photocurrents and the positive-going b-wave by depolarizing bipolar-cell currents in combination with bipolar cell-dependent K^+ currents affecting Müller cells. […] Scotopic b wave was also measured for both rd10 and rd10/SerpinF1 null mice (FIG. 10C). The data from these different assays corroborate the PSVue® data and illustrate the efficacy of eyedrops of the 17mer[H105A] peptide for protecting the photoreceptors against malformation, death, and misfunction in vivo.

[2] = Penetration or bioavailability of labeled peptide in retina after eyedrop (fluorometry of retinal extract); format: in vivo, mouse (C57/B16J); conditions: eyedrops; P21 mice; measured with the Alexa488-labeled peptide
Procedure: To detect labeled peptide in vitro, the labeled Alexa488-17-mer[H105A] peptide was diluted in HBSS at the indicated concentrations (X-axis). A total of 30 μl of each was added to a well in 96-well plate in triplicates. RIPA buffer was added to one dissected mouse retina at 80 μl/retina. The suspension was sonicated for 30 sec at 4 °C followed by centrifugation at 4 °C. 10 min at […] (Eppendorf centrifuge) to separate the soluble retinal extract from the particulate material. The labeled peptide was diluted in retinal extract. A total of 30 μl of each was added to a well in 96-well plate. HBSS (FIG. 18A) or retinal extract (FIG. 18B) were used as a control at zero and different concentrations of 17mer[H105A]-488 as indicated in the x-axis. Fluorescence was determined using a fluorometer [BMG LabTech POLARstar OPTIMA] using wavelength at [Excitation 485-P, Emission 520-P]. Plots were obtained using GraphPad and non-linear fit were analyzed.
At 1, 3, 6 and 24 hours after administration, retinas were dissected, their proteins were extracted with RIPA (80 μl/retina) and clarified by sonication and centrifugation. A total of 30 μl of extracts were used to determine the fluorescence of the peptide with a fluorometer (FIG. 19).

[3] = test system: photoreceptor function, rd10 mice; assay: Electroretinography (ERG), rd10 mice; format: in vivo, mouse
Procedure: as §1
At end point, eyes were enucleated and cross section of retinas from the treated animals were obtained. […] Electroretinography was also performed in untreated and eyes of rd10 mice treated with the […] eyedrops. […] The work was done with 3 animals, which may not give statistical significance.

[4] = P25, eyedrops every other day P15-P24

ERG amplitude of the a-wave [1]: improvement | time after eyedrop at which the peptide reached the retina [2]: 1 to 24 h | ERG amplitude of the a-wave ([3]; P21, daily eyedrops P15-P20): improvement | ERG amplitude of the a-wave [3, 4]: improvement | ERG amplitude of the b-wave [3, 4]: improvement | statistical difference in b-wave between treated and untreated ([3]; P25, eyedrops every other day, 3 animals): no statistically significant difference
Sequence: QRTESIIARALYYDLIS [17mer[H105A]]
